Patent US20250084091A1, “INHIBITORS OF SARS-COV-2” (The Texas A&M University System, priority 2021, published 2025)
Like-named read-outs stand apart in the source and are kept apart here.

How the values were obtained:
HeLa-ACE2 cells = test: cells; format: cell-based; conditions: Table 2, total cell count in infected plates
[1] = Uninfected host cell cytotoxicity counter screen; format: cell-based; conditions: human
Description: Uninfected host cell cytotoxicity counter screen: HeLa-ACE2 cells were maintained as described for the infection assay and seeded in the assay-ready plates at 400 cells/well. Plates were incubated for 24 hours at 37° C. 5% CO2. To assess cell viability, the Image-iT DEAD green reagent was used according to manufacturer instructions. Cells were fixed with 4% paraformaldehyde, and counterstained with DAPI. Fixed cells are imaged as described above.
Viral replication data analysis: Data from the primary screen and the host cell cytotoxicity screen are normalized to neutral (DMSO) […] inhibitor controls (2.5 μM Remdesivir for antiviral effect and 10 μM puromycin for infected host cell toxicity). For the uninfected host cell cytotoxicity counter-screen 40 μM puromycin is used as the positive control. Concentration response experiments will be tested in triplicate.

[2] = molecular target: SARS-CoV-2 main protease (Mpro) (Severe acute respiratory syndrome coronavirus 2, UniProt P0DTD1); test: biochemical
[3] = tested on: SARS-CoV-2 (strain USA-WA1/2020); test: microbe, parasite or virus in culture; format: cell-based
[4] = Table 3, select example compounds against mpro, read-out: Enzyme IC50
[5] = Severe acute respiratory syndrome coronavirus 2, HeLa, Table 3, read-out: CoV-2 HeLa EC50
[6] = Severe acute respiratory syndrome coronavirus 2, Table 2, SARS-CoV-2 infected HeLa-ACE2 cells, read-out: CoV-2 HeLa EC50
[7] = Table 2, uninfected cells, 24 hours, read-out: Uninfected HeLa-ACE2 CC50
[8] = Severe acute respiratory syndrome coronavirus 2, HeLa-ACE2, read-out: CoV-2 HeLa EC50, Table 2, SARS-CoV-2 infected HeLa-ACE2 cells

Compound | EC50 (HeLa-ACE2 cells) [µM] | CC50 at 24 h [1] [µM] | IC50 ([2]; Table 2, read-out: Enzyme IC50) [µM] | IC50 [2, 4] [µM] | EC50 [3, 5] [µM] | EC50 [3, 6] [µM] | CC50 at 24 h [1, 7] [µM] | IC50 ([2]; Enzyme IC50, Table 2) [µM] | EC50 [3, 8] [µM]
O=C(c1cncc2cc[nH]c12)N1CCN(C2c3ccccc3CS(=O)(=O)c3ccccc32)CC1 (stereo not shown) [NZ-808, [4-(5,5-dioxo-6,11-dihydrobenzo[c][1]benzothiepin-11-yl)piperazin-1-yl]-(1H-pyrrolo[3,2-c]pyridin-7-yl)methanone] | 0.03 | > 39.8 | 0.032 | 0.01 | 0.025 | 0.025 |  |  | 
O=C(c1cccnc1)N1CCN(C(c2ccccc2)c2ccsc2)CC1 (stereo not shown) [MKP-1215, 1-[phenyl(thiophen-3-yl)methyl]-4-(pyridine-3-carbonyl)piperazine] | > 9.61 | > 39.8 | 4.5 |  |  | 2.81 |  |  | 
Cc1cncc(C(=O)N2CCN(C(c3ccccc3)c3cccc(C(F)(F)F)c3)CC2)c1 (stereo not shown) [MKP-1276, 1-(5-methylpyridine-3-carbonyl)-4-{phenyl[3-(trifluoromethyl)phenyl]methyl} piperazine] | 3.41 | 22.9 | 0.211 |  |  | 0.637 |  |  | 
Cc1cncc(C(=O)N2CCC(=C3c4ccccc4CS(=O)(=O)c4ccccc43)CC2)c1 [NZ-801, [4-(5,5-dioxo-6H-benzo[c][1]benzothiepin-11-ylidene)-1-piperidyl]-(5-methyl-3-pyridyl)methanone] | 0.081 | > 39.8 | 0.056 | 0.012 | 0.042 | 0.042 |  |  | 
O=C(c1cncc(Cl)c1)N1CCC(=C(c2ccccc2)c2ccccc2)CC1 [NZ-781, 3-chloro-5-[4-(diphenylmethylidene)piperidine-1-carbonyl]pyridine] | > 9.61 | 35.8 | 0.11 |  |  | 1.05 |  |  | 
Cc1cncc(C(=O)N2CCN(C(c3ccccc3)c3ccccc3F)CC2)c1 (stereo not shown) [MKP-1287, 1-[(2-fluorophenyl)(phenyl)methyl]-4-(5-methylpyridine-3-carbonyl)piperazine] | 0.81 | > 39.8 | 0.066 |  |  | 0.599 |  |  | 
O=C(c1cccnc1)N1CCN(C2c3ccccc3CCc3ccccc32)CC1 [ZS-312, 3-pyridyl-[4-(2-tricyclo[9.4.0.03,8]pentadeca-1(11),3(8),4,6,12,14-hexaenyl)piperazin-1-yl]methanone] | > 9.61 | > 39.8 | 0.44 |  |  | 1.04 |  |  | 
Cc1cncc(C(=O)N2CCN(C3c4ccccc4C=Cc4ccccc43)CC2)c1 [NZ-784, (5-methyl-3-pyridyl)-[4-(2-tricyclo[9.4.0.03,8]pentadeca-1(11),3(8),4,6,9,12,14-heptaenyl)piperazin-1-yl]methanone] | > 9.61 | 39.4 | 0.088 |  |  | 0.36 |  |  | 
N#Cc1cncc(C(=O)N2CCN(C(c3ccccc3)c3ccccc3)CC2)c1 [MKP-1230, 5-[4-(diphenylmethyl)piperazine-1-carbonyl]pyridine-3-carbonitrile] | > 9.61 | > 39.8 | 1.3 |  |  | 2.8 |  |  | 
COC(=O)c1cncc(C(=O)N2CCN(C3c4ccccc4CCc4ccccc43)CC2)c1 [ZS-338, methyl 5-[4-(2-tricyclo[9.4.0.03,8]pentadeca-1(11),3(8),4,6,12,14-hexaenyl)piperazine-1-carbonyl]pyridine-3-carboxylate] | > 9.61 | > 39.8 | > 1 |  |  | 7.07 |  |  | 
O=C(c1cncc(Br)c1)N1CCN(C(c2ccccc2)c2ccsc2)CC1 (stereo not shown) [MKP-1220, 1-(5-bromopyridine-3-carbonyl)-4-[phenyl(thiophen-3-yl)methyl]piperazine] | 2.64 | > 39.8 | 0.25 |  |  | 0.884 |  |  | 
O=C(c1cncc(C(F)(F)F)c1)N1CCN(C(c2ccccc2)c2cccnc2)CC1 (stereo not shown) [MKP-1195, 1-[phenyl(pyridin-3-yl)methyl]-4-[5-(trifluoromethyl)pyridine-3-carbonyl]piperazine] | > 9.61 | > 39.8 | 2.68 |  |  | 8.77 |  |  | 
NC(=O)c1cncc(C(=O)N2CCN(C3c4ccccc4CCc4ccccc43)CC2)c1 [ZS-347, 5-[4-(2-tricyclo[9.4.0.03,8]pentadeca-1(11),3(8),4,6,12,14-hexaenyl)piperazine-1-carbonyl]pyridine-3-carboxamide] | > 9.61 | > 39.8 | 1.7 |  |  | 4.25 |  |  | 
O=C(c1cncc(Cl)c1)N1CCC(C(O)(c2ccccc2)c2ccccc2)CC1 [NZ-779, [1-(5-chloropyridine-3-carbonyl)piperidin-4-yl]diphenylmethanol] | > 9.61 | > 39.8 | 0.37 |  |  | 0.71 |  |  | 
O=C(c1cncc2nc[nH]c12)N1CC2CCC(C1)N2C(c1ccccc1)c1ccccc1 [AA-642, (8-benzhydryl-3,8-diazabicyclo[3.2.1]octan-3-yl)(1H-imidazo[4,5-c]pyridin-7-yl)methanone] | 3.24 |  |  |  |  |  | > 39.8 | 0.21 | 1.05
O=C(c1cccnc1)N1CCC(=C(c2ccccc2)c2ccccc2)CC1 [NZ-772, 3-[4-(diphenylmethylidene)piperidine-1-carbonyl]pyridine] | > 9.61 | > 39.8 | 0.32 |  |  | 1.01 |  |  | 
O=C(c1cnccn1)N1CCN(C(c2ccccc2)c2ccccc2)CC1 [AA-579, (4-benzhydrylpiperazin-1-yl)(pyrazin-2-yl)methanone] | > 9.61 | > 39.8 | 7.7 |  |  |  |  |  | > 9.61
O=C(c1cncc2nc[nH]c12)N1CCN(C2c3ccccc3CS(=O)(=O)c3ccccc32)CC1 (stereo not shown) [NZ-810, [4-(5,5-dioxo-6,11-dihydrobenzo[c][1]benzothiepin-11-yl)piperazin-1-yl]-(1H-imidazo[4,5-c]pyridin-7-yl)methanone] | 0.434 | > 39.8 | 0.075 |  |  | 0.482 |  |  | 
Cc1cncc(C(=O)N2CCN(C(c3ccccc3)c3ccccc3S(C)(=O)=O)CC2)c1 (stereo not shown) [NZ-807, (5-methyl-3-pyridyl)-[4-[(2-methylsulfonylphenyl)-phenyl-methyl]piperazin-1-yl]methanone] | > 9.61 | > 39.8 | 0.61 |  |  | 1.99 |  |  | 
Cc1cnc(F)c(C(=O)N2CC3CCC(C2)N3C(c2ccccc2)c2ccccc2)c1 [AA-638, (8-benzhydryl-3,8-diazabicyclo[3.2.1]octan-3-yl)(2-fluoro-5-methylpyridin-3-yl)methanone] | 0.711 |  |  |  |  |  | > 39.8 | 0.22 | 0.893
Cc1cc(C(=O)N2CCC(C(O)(c3ccccc3)c3ccccc3)CC2)c[n+]([O-])c1 [NZ-792, [4-[hydroxy(diphenyl)methyl]-1-piperidyl]-(5-methyl-1-oxo-3-pyridyl)methanone] | > 9.61 | > 39.8 | > 10 |  |  |  |  |  | > 9.61
O=C(c1cncc(Cl)c1)N1CCN(C(c2ccccc2)c2cccnc2)CC1 (stereo not shown) [MKP-1193, 1-(5-chloropyridine-3-carbonyl)-4-[phenyl(pyridin-3-yl)methyl]piperazine] | > 9.61 | > 39.8 | 0.45 |  |  | 0.81 |  |  | 
O=S1(=O)Cc2ccccc2C(N2CCC(C(O)c3cccnc3)CC2)c2ccccc21 (stereo not shown) [NZ-806, [1-(5,5-dioxo-6,11-dihydrobenzo[c][1]benzothiepin-11-yl)-4-piperidyl]-(3-pyridyl)methanol] | > 9.61 | > 39.8 | 18.9 |  |  |  |  |  | > 9.61
COc1cncc(C(=O)N2CCN(C3c4ccccc4CCc4ccccc43)CC2)c1 [ZS-319, (5-methoxy-3-pyridyl)-[4-(2-tricyclo[9.4.0.03,8]pentadeca-1(11),3(8),4,6,12,14-hexaenyl)piperazin-1-yl]methanone] | > 9.61 | 32.1 | 0.21 |  |  | 0.92 |  |  | 
O=C(c1cncc(Cl)c1)N1CCN(C2c3ccccc3CCc3ccccc32)CC1 [ZS-317, (5-chloro-3-pyridyl)-[4-(2-tricyclo[9.4.0.03,8]pentadeca-1(11),3(8),4,6,12,14-hexaenyl)piperazin-1-yl]methanone] | > 9.61 | > 39.8 | 0.18 |  |  | 0.9 |  |  | 
O=C(c1cncc(O)c1)N1CCN(C(c2ccccc2)c2ccccc2)CC1 [AA-599, (4-benzhydrylpiperazin-1-yl)(5-hydroxypyridin-3-yl)methanone] | > 9.61 | > 39.8 | 1.6 |  |  | 6.03 |  |  | 
Cc1cncc(C(=O)N2CCN(C(c3ccccc3)c3ccc(S(C)(=O)=O)cc3)CC2)c1 (stereo not shown) [NZ-799, 1-[(4-methanesulfonylphenyl)(phenyl)methyl]-4-(5-methylpyridine-3-carbonyl)piperazine] | 6.58 | > 39.8 | 1.24 |  |  | 2.54 |  |  | 
